Source: US8067422B2, “Crystal form of phenylamino pyrimidine derivatives” (Natco Pharma Limited, priority 2008, dated 2011)
Entries after “also recorded” stand apart in the source; their conditions may differ.

Tests used:
K562 cells = assay: Spleenic enlargement and spleen Crk immunocytochemistry in K562 implanted nude mice; format: in vivo; conditions: ip injections
Description: Control mice were sacrificed on day 42 when secondary leukemia symptoms were observed, such as abdominal swelling and lack of circulation in the peripherals causing loss of digits with red spots under the skin surface. Spleen and any secondary tumors were harvested, fixed in formaldehyde and paraffin embedded as per standard protocols. Paraffin section were obtained and processed for immunocytochemistry. The rehydrated sections were treated with 0.3% H2O2 to inactivate any native peroxidases prior to immuno-probing. The sections were blocked with filter sterilized (0.22 μm) 1% BSA-PBS at room temperature for 1 h. Following blocking, the sections were immuno-probed with a human specific anti-Crk monoclonal primary antibody raised in rabbit against a synthetic peptide corresponding to residues in the SH2 domain, near the N-term of human CrkL protein (Abcam, Cambridge, Mass., USA) in 1% BSA-PBS overnight. Secondary antibody (anti-rabbit) conjugated to HRP was used to detect the presence of primary antibody. The sections were briefly rinsed three times in PBS solution after immuno-probing with secondary antibody, and DAB HRP substrate was added per manufacture's instructions (Sigma St Louis Mo. USA). The reaction was allowed to proceed until sharp contrast between positive and negative controls was observed. For negative controls primary antibody were eliminated. Leukemic mice spleen served as positive controls.
Mice were sacrificed after a decrease in LGI was observed and spleen harvested. […] Control mice also developed random subcutaneous tumors showing Crk expression, indicative of the presence of K562 cells.

[1] = test system: Baf3 murine leukemia cells (E255K); assay: Blast cell count in nude mice implanted with Baf3 E255K cells; format: in vivo; conditions: Baf3 E225K (E255K); Imatinib 10 mg/kg, AN019 20 mg/kg, AN024 20 mg/kg, oral gavage or ip; day 42
Source text: Blood smears were obtained via the tail vein or via the femoral vein every 6th day and blast cells counted and graphically represented.
Abdominal swelling and decrease in activity was monitored daily, blood smear taken via the tail vein or the femoral vein every 6th day and H&E stained as per standard protocols. 42 days after implantation, mice were sacrificed and spleens harvested.
Nude mice were intraperitoneally implanted with Baf3 mutant cells (wt, T315I, M351T or E255K). […] Blood was drawn from the femoral vein or tail vein every 6th day and blast cell count determined and graphically represented.

ZR71 breast cancer cells = assay: Matrigel invasion assay (modified Boyden chamber), ZR-71; format: cell-based; conditions: ZR-71
Description: (§1) The in vitro invasiveness of 4910, 5310 and U87 glioma cells and MDAMB231 and ZR71 breast cancer cells in the presence of specified concentrations of compounds were assessed using a modified Boyden chamber assay. Cells were treated with these compounds for 48 h. 1×10^6 cells were suspended in 600 μl of serum-free medium supplemented with 0.2% BSA and placed in the upper compartment of the transwell chambers (Corning Costar Fischer Scientific Cat #07-200-158, Pittsburgh Pa.) coated with Matrigel (0.7 mg/ml). The lower compartment of the chamber was filled with 200 μl of serum medium and the cells were allowed to migrate for 24 h. After incubation, the cells were fixed and stained with Hema-3 and quantified as previously described (Mohanam et al. 1993). The migrated cells were imaged microscopically to determine the reduction in invasiveness induced by the compounds of this invention.

[2] = test system: MDAMB231 breast cancer cells; assay: Matrigel invasion assay (modified Boyden chamber), MDA-MB-231; format: cell-based; conditions: MDA-MB-231
Description: as §1

U87 glioma cells [3] = assay: Matrigel invasion assay (modified Boyden chamber), U87; format: cell-based; conditions: U87
Description: as §1

U87 glioma cells [4] = assay: In vitro angiogenic assay, U87 conditioned media on human dermal endothelial cells; format: cell-based
Description: The in vitro angiogenesis of 4910, 5310 and U87 glioma cells and MDAMB231 and ZR71 breast cancer cells in the presence of specified concentrations of compounds were determined as follows, cells (2×10^4/well) were seeded in 8-well chamber slides and were treated with various concentrations of test compounds. After a 24 h incubation period, the conditioned media was removed and added to a 4×10^4 human dermal endothelial cell (monolayer in 8-well chamber slides) and the human dermal endothelial cells were allowed to grow for 72 h. Cells were then fixed in 3.7% formaldehyde and stained with H&E and photographed.

in vivo = conditions: mouse

SMILES: Cc1ccc(NC(=O)c2cc(C(F)(F)F)cc(C(F)(F)F)c2)cc1Nc1nccc(-c2cccnc2)n1 [AN019, (3,5-bis trifluoromethyl)-N-[4-methyl-3-(4-pyridin-3yl-pyrimidin-2ylamino)-phenyl]-benzamide]
- Crk expression in spleen (immunohistochemistry) (K562 cells): basal levels of Crk expression; also recorded: only basal level expression
- Spleenic enlargement (gross observation) (K562 cells): did not show any spleenic enlargement
- Blast cell count in blood smears [1]: significant decrease in blast cell count
- ±Change in invasion after radiation (ZR71 breast cancer cells): −14%
- ±Change in invasion after radiation [2]: −30%
- ±Change in invasion after radiation (U87 glioma cells [3]): 0%
- Inhibition of angiogenesis (U87 glioma cells [4]; after radiation): significant retardation in angiogenesis
- Inhibition of angiogenesis (U87 glioma cells [4]; without radiation): significant retardation in angiogenesis
- MTD (in vivo): 500 mg/kg
